Assay results as given in PubChem BioAssay AID1324 (NMMLSC, 2008).
The source made the active and inactive calls. How the calls were made is not given here.

Target: glutathione S-transferase (GST-GSH binding)
Test: GST–glutathione interaction disruption – biochemical, multiplex beads, flow cytometry, HPSMTB buffer, profiling panel (AID 1324);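 further: glutathione beads loaded with GST-green fluorescent protein and no fluorescent Bim peptide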
Conditions: multiplex bead flow cytometry, MCF

SMILES	EC50
COCCCn1c(N)c(C(=O)Nc2sc3c(c2C(=O)OC)CCCC3)c2nc3ccccc3nc21	2550 nM
O=C(Nc1cccc(Cl)c1)Nc1ccnc(-c2cccnc2)n1	inactive
CCOC(=O)c1ccc(Nc2nc(C(=O)OCC)nc3ccccc23)cc1	2380 nM
COc1ccc(-n2c(=O)c3ccccc3c3ccccc3c2=O)c(OC)c1	inactive
COC(=O)c1sc2nc[nH]c(=O)c2c1C	inactive

Same assay, conditions: multiplex bead flow cytometry, MCF, active compounds read high, concentration not given here

SMILES	percent span inhibition
Cc1cc(N2CCN(C)CC2)nc2ccc(NC(=S)N3CCN(c4cccc(Cl)c4)CC3)cc12	inactive
CCC(=O)OCCNc1cc(Sc2nc3ccccc3s2)c2nonc2c1[N+](=O)[O-]	inactive
O=C(c1ccc(CNS(=O)(=O)c2ccc(Br)cc2)cc1)N1CCCC1	inactive
C/C(=N\NC(=O)COc1ccc(C#N)cc1)c1ccccc1OC(F)F	inactive
Cn1c(=O)c2c(nc(NCCO)n2CCc2ccccc2)n(C)c1=O	inactive
O=C1C(Cl)=C(N2CCN(c3ccccc3[N+](=O)[O-])CC2)C(=O)c2ccccc21	inactive
O=C(Nc1ccccc1)c1ccc2nc(-c3ccco3)c(-c3ccco3)nc2c1	inactive
Cc1ccc(N=Cc2c(O)n(-c3ccc4c(c3)OCO4)c(=O)c3ccccc23)cc1	inactive
O=C(c1cccc(Br)c1)N1CCN(c2cnn(-c3ccccc3)c(=O)c2Cl)CC1	inactive
CCOC(=O)CSC1=NC(=O)/C(=C\c2ccc(OC(C)=O)cc2)S1	inactive
CSc1nnc2c3cc(C)ccc3n(Cc3ccccc3)c2n1	inactive
Cn1c(CNc2nc(-c3ccccc3)cs2)nnc1SCC(=O)N1CCc2ccccc21	inactive
CCOC(=O)c1nc(Nc2ccc(Nc3ccccc3)cc2)c2ccccc2n1	inactive
Cc1cc(N2CCN(C)CC2)nc2ccc(NC(=S)N3CCN(c4ccc(F)cc4)CC3)cc12	inactive
CCSc1ncnc2sc(C)c(C)c12	inactive
CCOc1ccccc1CNc1ccc(O)cc1	inactive
Cc1ccc(-c2c3c([nH]c(=S)c2C#N)CCCC3)o1	inactive
CN1N=C(C(=O)N2CCCC(C(=O)c3cccc(C(F)(F)F)c3)C2)CCC1=O (stereo not given)	inactive
N/C(=N\OC(=O)CCC1CCCC1)c1ccncc1	inactive
COc1ccc(-n2c(NC(=O)c3ccco3)c(C#N)c3nc4ccccc4nc32)cc1	inactive
CCCCOc1ccc(Cc2c(Cl)nc(SC)nc2N2CCOCC2)cc1	inactive
CNCc1ccccc1Sc1ccc(O)c(O)c1	inactive
Cc1cnnn1-c1ccc(C(=O)CCl)cc1	inactive

SMILES	percent span inhibition
CC1CCN(C2(O)C(=O)Nc3ccc(Br)cc32)CC1 (stereo not given)	inactive
Cc1noc(C)c1CN1C(=O)NC(Cc2ccccc2)(Cc2ccccc2)C1=O	inactive
CCN(CC)c1nc(N)nc(N(c2ccccc2)c2ccccc2)n1	inactive
COc1ccc(C(=O)NC(=S)N2CCNC(=O)C2)cc1Br	inactive
CNc1nc2ccccc2n1/N=C/c1cccc(OC)c1OC	inactive
CCCn1c(N2CCN(C)CC2)nc2c1c(=O)[nH]c(=O)n2C	inactive
COc1ccc(N2CCN(C(=O)c3cc(=O)[nH]c4ccccc34)CC2)cc1	inactive
COc1cc(/C=N/Nc2nc3c(c(=O)n(C)c(=O)n3C)n2Cc2ccccc2)ccc1OC(=O)c1ccco1	inactive
COc1ccc(C2CC(=O)C3=C(C2)Nc2ccccc2NC3c2coc3ccccc3c2=O)cc1OC (stereo not given)	inactive
Nc1c(C(=O)NC2CC2)sc2nc3c(c(-c4ccco4)c12)CC/C3=C/c1ccco1	inactive
CCOC(=O)c1sc(NC(=O)c2ccncc2)c(C#N)c1C	inactive
Cc1cc(/C=C(/C#N)C(=O)Nc2ccc(Cl)cc2)c(C)n1-c1cccnc1	inactive
O=C(Nc1nnc(SCc2ccccn2)s1)C1CC(=O)N(c2ccccc2)C1 (stereo not given)	inactive
CN(C)c1cccc(NC(=O)C2(C)CC2(Cl)Cl)c1 (stereo not given)	inactive
O=C(COc1ccccc1)N1CCN(c2ncnc3c2cnn3-c2ccccc2)CC1	inactive
Cc1ccc(NC(=O)C/C(N)=N/OC(=O)c2ccccc2)cc1	inactive
CC(/C=C/C(=O)c1ccc(C)cc1)=C\c1ccccc1	inactive
CC(C)(C)c1nc(NCCN2CCOCC2)c2nnn(Cc3ccccc3Cl)c2n1	inactive
CC(=O)Nc1ccc(NC2=C(Cl)C(=O)c3ccccc3C2=O)cc1	inactive
COc1ccccc1NC(=O)CSc1ncn(-c2ccccc2)n1	inactive
COCCN=c1scc(-c2ccco2)n1/N=C/c1ccc(O)c(O)c1O	inactive
COc1ccc(Cl)cc1-n1c(C)cc(C=O)c1C	inactive
